Patent US20230257372A1 (CHONG KUN DANG PHARMACEUTICAL CORP., priority 2020, published 2023)

Key:
human recombinant HDAC6 = biological target: T1, human recombinant HDAC6 (Homo sapiens, UniProt Q9UBN7); assay: HDAC6 enzyme activity inhibition (HDAC Fluorimetric Drug Discovery Kit); assay type: biochemical; conditions: for HDAC6 selectivity (fold): HDAC6 over HDAC1; for IC50: human recombinant HDAC6, same protocol as HDAC1
T1 construct: purchased Calbiochem Inc. 382180
T1 sequence (Q9UBN7 1-1215): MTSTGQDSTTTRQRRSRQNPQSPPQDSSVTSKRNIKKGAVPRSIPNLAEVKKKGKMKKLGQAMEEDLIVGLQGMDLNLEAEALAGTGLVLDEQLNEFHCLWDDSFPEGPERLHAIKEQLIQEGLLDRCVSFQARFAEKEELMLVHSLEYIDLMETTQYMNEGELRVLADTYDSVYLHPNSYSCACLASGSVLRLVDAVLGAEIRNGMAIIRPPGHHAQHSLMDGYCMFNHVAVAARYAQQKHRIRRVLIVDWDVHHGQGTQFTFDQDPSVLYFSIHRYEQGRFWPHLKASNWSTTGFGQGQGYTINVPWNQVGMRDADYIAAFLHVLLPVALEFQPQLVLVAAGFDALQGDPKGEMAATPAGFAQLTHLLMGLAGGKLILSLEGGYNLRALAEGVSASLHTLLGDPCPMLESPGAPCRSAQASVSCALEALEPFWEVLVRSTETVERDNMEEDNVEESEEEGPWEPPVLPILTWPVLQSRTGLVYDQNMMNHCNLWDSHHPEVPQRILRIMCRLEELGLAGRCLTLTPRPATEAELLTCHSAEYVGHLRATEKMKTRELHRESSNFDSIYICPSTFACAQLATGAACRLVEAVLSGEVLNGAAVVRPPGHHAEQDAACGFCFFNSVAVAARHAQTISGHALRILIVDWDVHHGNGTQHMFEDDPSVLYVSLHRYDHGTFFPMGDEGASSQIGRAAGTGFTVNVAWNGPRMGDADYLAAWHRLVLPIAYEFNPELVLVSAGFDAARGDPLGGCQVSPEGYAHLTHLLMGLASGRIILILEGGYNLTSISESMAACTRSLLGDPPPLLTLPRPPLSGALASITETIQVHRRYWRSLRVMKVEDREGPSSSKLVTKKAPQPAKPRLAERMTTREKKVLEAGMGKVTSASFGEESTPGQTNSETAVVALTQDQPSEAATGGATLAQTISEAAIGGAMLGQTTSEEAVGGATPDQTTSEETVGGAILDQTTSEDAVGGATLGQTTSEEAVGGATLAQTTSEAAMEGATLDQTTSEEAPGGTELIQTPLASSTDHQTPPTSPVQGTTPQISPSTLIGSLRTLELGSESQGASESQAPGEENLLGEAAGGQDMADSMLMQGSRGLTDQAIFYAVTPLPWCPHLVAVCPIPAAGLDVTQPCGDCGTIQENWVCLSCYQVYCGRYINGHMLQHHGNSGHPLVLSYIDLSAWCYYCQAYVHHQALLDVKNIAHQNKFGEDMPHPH
Outline: (§1)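 Fluorimetric deacetylase read-out. 5-fold compound dilutions; […] enzyme, 10 μM substrate; 30° C, 60 min; developer 30 min.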

human recombinant HDAC1 = biological target: T2, human recombinant HDAC1 (Homo sapiens, UniProt Q13547); assay: HDAC1 enzyme activity inhibition (HDAC Fluorimetric Drug Discovery Kit); assay type: biochemical; conditions: human recombinant HDAC1, Fluor de Lys substrate, 30° C. 60 minutes; read-out: HDAC1
T2 construct: purchased Enzo Life Science, Inc. BML-SE456
Outline: as §1

T2 sequence (Q13547 whole entry): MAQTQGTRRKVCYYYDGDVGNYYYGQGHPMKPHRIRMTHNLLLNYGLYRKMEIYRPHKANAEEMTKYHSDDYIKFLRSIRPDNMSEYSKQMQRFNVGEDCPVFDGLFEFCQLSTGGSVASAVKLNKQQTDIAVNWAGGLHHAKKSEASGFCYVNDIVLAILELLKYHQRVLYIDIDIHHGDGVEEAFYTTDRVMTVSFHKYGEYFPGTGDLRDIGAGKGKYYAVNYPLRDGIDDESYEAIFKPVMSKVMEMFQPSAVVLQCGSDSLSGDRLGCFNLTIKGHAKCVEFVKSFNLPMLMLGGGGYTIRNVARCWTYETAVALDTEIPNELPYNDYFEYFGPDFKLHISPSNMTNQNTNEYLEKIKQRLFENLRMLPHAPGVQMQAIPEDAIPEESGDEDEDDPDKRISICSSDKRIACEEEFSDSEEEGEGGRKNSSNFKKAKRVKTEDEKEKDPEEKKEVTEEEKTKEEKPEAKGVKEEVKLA

Structure (SMILES) | HDAC6 selectivity (fold) (human recombinant HDAC6) | IC50 (human recombinant HDAC6) [nM] | IC50 (human recombinant HDAC1) [µM]
OCc1ccc(-c2cn(Cc3ccc(-c4nnc(C(F)F)o4)cc3F)nn2)nc1 [Compound 17545, (6-(1-(4-(5-(difluoromethyl)-1,3,4-oxadiazol-2-yl)-2-fluorobenzyl)-1H-1,2,3-triazol-4-yl)pyridin-3-yl)methanol] | 880 | 56.8 | > 50
Fc1cc(-c2nnc(C(F)F)o2)ccc1Cn1cc(-c2ccc(C3CN(C4CCC4)C3)cc2)nn1 [Compound 17699, 2-(4-((4-(4-(1-cyclobutylazetidin-3-yl)phenyl)-1H-1,2,3-triazol-1-yl)methyl)-3-fluorophenyl)-5-(difluoromethyl)-1,3,4-oxadiazole] | 1043 | 47.9 | > 50
Fc1cc(-c2nnc(C(F)F)o2)ccc1Cn1cc(-c2ccc(C3CN(C4COC4)C3)cc2)nn1 [Compound 17700, 2-(difluoromethyl)-5-(3-fluoro-4-((4-(4-(1-(oxetan-3-yl)azetidin-3-yl)phenyl)-1H-1,2,3-triazol-1-yl)methyl)phenyl)-1,3,4-oxadiazole] | 626 | 79.8 | > 50
Fc1cc(-c2nnc(C(F)F)o2)ccc1Cn1cc(-c2ccc(CN3CC[C@H](F)C3)nc2)nn1 [Compound 17773, (S)-2-(difluoromethyl)-5-(3-fluoro-4-((4-(6-((3-fluoropyrrolidin-1-yl)methyl)pyridin-3-yl)-1H-1,2,3-triazol-1-yl)methyl)phenyl)-1,3,4-oxadiazole] | 769 | 65 | > 50
Fc1cc(-c2nnc(C(F)F)o2)ccc1Cn1cc(-c2ccc(CN3CC[C@@H](F)C3)nc2)nn1 [Compound 17774, (R)-2-(difluoromethyl)-5-(3-fluoro-4-((4-(6-((3-fluoropyrrolidin-1-yl)methyl)pyridin-3-yl)-1H-1,2,3-triazol-1-yl)methyl)phenyl)-1,3,4-oxadiazole] | 897 | 55.7 | > 50
Fc1cc(-c2nnc(C(F)F)o2)ccc1Cn1cc(-c2ccc(CN3CCC(F)(F)C3)nc2)nn1 [Compound 17775, 2-(difluoromethyl)-5-(4-((4-(6-((3,3-difluoropyrrolidin-1-yl)methyl)pyridin-3-yl)-1H-1,2,3-triazol-1-yl)methyl)-3-fluorophenyl)-1,3,4-oxadiazole] | 531 | 94.1 | > 50
CC1(C)CCN(Cc2ccc(-c3cn(Cc4ccc(-c5nnc(C(F)F)o5)cc4F)nn3)cn2)CC1 [Compound 17777, 2-(difluoromethyl)-5-(4-((4-(6-((4,4-dimethylpiperidin-1-yl)methyl)pyridin-3-yl)-1H-1,2,3-triazol-1-yl)methyl)-3-fluorophenyl)-1,3,4-oxadiazole] | 952 | 52.5 | > 50
Fc1cc(-c2nnc(C(F)F)o2)ccc1Cn1cc(-c2ccc(CN3CCC(F)(F)CC3)nc2)nn1 [Compound 17778, 2-(difluoromethyl)-5-(4-((4-(6-((4,4-difluoropiperidin-1-yl)methyl)pyridin-3-yl)-1H-1,2,3-triazol-1-yl)methyl)-3-fluorophenyl)-1,3,4-oxadiazole] | 603 | 82.9 | > 50
Fc1cc(-c2nnc(C(F)F)o2)ccc1Cn1cc(-c2nccs2)nn1 [Compound 17848, 2-(difluoromethyl)-5-(3-fluoro-4-((4-(thiazol-2-yl)-1H-1,2,3-triazol-1-yl)methyl)phenyl)-1,3,4-oxadiazole] | 646 | 77.3 | > 50
Fc1cc(-c2nnc(C(F)F)o2)ccc1Cn1cc(-c2cncs2)nn1 [Compound 17851, 2-(difluoromethyl)-5-(3-fluoro-4-((4-(thiazol-5-yl)-1H-1,2,3-triazol-1-yl)methyl)phenyl)-1,3,4-oxadiazole] | 588 | 84.9 | > 50
Cc1csc(-c2cn(Cc3ccc(-c4nnc(C(F)F)o4)cc3F)nn2)n1 [Compound 17854, 2-(difluoromethyl)-5-(3-fluoro-4-((4-(4-methylthiazol-2-yl)-1H-1,2,3-triazol-1-yl)methyl)phenyl)-1,3,4-oxadiazole] | 599 | 83.4 | > 50
Cc1cnc(-c2cn(Cc3ccc(-c4nnc(C(F)F)o4)cc3F)nn2)s1 [Compound 17857, 2-(difluoromethyl)-5-(3-fluoro-4-((4-(5-methylthiazol-2-yl)-1H-1,2,3-triazol-1-yl)methyl)phenyl)-1,3,4-oxadiazole] | 809 | 61.8 | > 50
Fc1cc(-c2nnc(C(F)F)o2)ccc1Cn1cc(-c2ccc(CN3CCC3)s2)nn1 [Compound 17912, 2-(4-((4-(5-(azetidin-1-ylmethyl)thiophen-2-yl)-1H-1,2,3-triazol-1-yl)methyl)-3-fluorophenyl)-5-(difluoromethyl)-1,3,4-oxadiazole] | 1237 | 40.4 | > 50
Fc1cc(-c2nnc(C(F)F)o2)ccc1Cn1cc(-c2ccc(CN3CCCC3)s2)nn1 [Compound 17913, 2-(difluoromethyl)-5-(3-fluoro-4-((4-(5-(pyrrolidin-1-ylmethyl)thiophen-2-yl)-1H-1,2,3-triazol-1-yl)methyl)phenyl)-1,3,4-oxadiazole] | 1547 | 32.3 | > 50
CC1CCN(Cc2ccc(-c3cn(Cc4ccc(-c5nnc(C(F)F)o5)cc4F)nn3)s2)CC1 [Compound 17915] | 568 | 87.9 | > 50
Fc1cc(-c2nnc(C(F)F)o2)ccc1Cn1cc(-c2ccc(CN3CC[C@H](F)C3)s2)nn1 [Compound 17916] | 556 | 89.8 | > 50
Fc1cc(-c2nnc(C(F)F)o2)ccc1Cn1cc(-c2ccc(CN3CC[C@@H](F)C3)s2)nn1 [Compound 17917] | 881 | 56.7 | > 50
OCc1ccc(-c2cn(Cc3ccc(-c4nnc(C(F)F)o4)cc3F)nn2)s1 [Compound 17922] | 512 | 97.6 | > 50
Fc1cc(-c2nnc(C(F)F)o2)cnc1Cn1cc(-c2cccs2)nn1 [Compound 17984, 2-(difluoromethyl)-5-(5-fluoro-6-((4-(thiophen-2-yl)-1H-1,2,3-triazol-1-yl)methyl)pyridin-3-yl)-1,3,4-oxadiazole] | 884 | 56.5 | > 50
Fc1cc(-c2nnc(C(F)F)o2)cnc1Cn1cc(-c2ccc(CN3CCCC3)s2)nn1 [Compound 18059, 2-(difluoromethyl)-5-(5-fluoro-6-((4-(5-(pyrrolidin-1-ylmethyl)thiophen-2-yl)-1H-1,2,3-triazol-1-yl)methyl)pyridin-3-yl)-1,3,4-oxadiazole] | 1295 | 38.6 | > 50
Fc1cc(-c2nnc(C(F)F)o2)ccc1Cn1cc(-c2ccc(CN3CCC3)nc2)nn1 [Compound 18174, 2-(4-((4-(6-(azetidin-1-ylmethyl)pyridin-3-yl)-1H-1,2,3-triazol-1-yl)methyl)-3-fluorophenyl)-5-(difluoromethyl)-1,3,4-oxadiazole] | 980 | 51 | > 50
Fc1cc(-c2nnc(C(F)F)o2)ccc1Cn1cc(-c2ccc(CN3CCCC3)nc2)nn1 [Compound 18175, 2-(difluoromethyl)-5-(3-fluoro-4-((4-(6-(pyrrolidin-1-ylmethyl)pyridin-3-yl)-1H-1,2,3-triazol-1-yl)methyl)phenyl)-1,3,4-oxadiazole] | 1184 | 42.2 | > 50
